# Data published in patent publication US4272437A, “Antibacterial agents, and 4-thio azetidinone intermediates” (priority 1979, dated 1981).
# Like-named read-outs stand apart in the source and are kept apart here.
# Assays:
# [1] = test system: Staph. aureus A-9537 and 50% serum; experiment: MIC, tube dilution, Staph. aureus A9537 + 50% serum; type: cell-based, Staphylococcus aureus; details: overnight 37° C.
# Excerpt: (§1) Representative compounds of the present invention were subjected to in vitro antibiotic screening against a variety of microorganisms.
# E. coli A-20341-1 = experiment: MIC, tube dilution, Escherichia coli A20341-1; type: cell-based; details: Escherichia coli, A203411; E. coli A20341-1; overnight 37° C.; read-out: Minimum Inhibitory Concentration (M.I.C.)
# Excerpt: as §1
# Str. pneumoniae A-9585 = experiment: MIC, tube dilution, Streptococcus pneumoniae A9585; type: cell-based; details: overnight 37° C., Nutrient Broth
# Excerpt: as §1
# Staph. aureus A-9537 = experiment: MIC, tube dilution, Staphylococcus aureus A9537; type: cell-based; details: overnight 37° C., Nutrient Broth
# Excerpt: as §1
# [2] = test system: Klebsiella species A20468; experiment: MIC, tube dilution, Klebsiella species A20468; type: cell-based; details: Klebsiella species (K. pneumoniae) A20468, overnight 37° C.
# Excerpt: as §1
# [3] = test system: Providencia stuartii A21205; experiment: MIC, tube dilution, Providencia stuartii (Pr. rettgeri) A21205; type: cell-based; details: Providencia stuartii, A21205, read-out: Minimum Inhibitory Concentration (M.I.C.)
# Excerpt: as §1
# Str. pyogenes A-9604 = experiment: MIC, tube dilution, Streptococcus pyogenes A9604; type: cell-based; details: overnight 37° C., Nutrient Broth
# Excerpt: as §1
# Ent. cloacae A-9656 = experiment: MIC, tube dilution, Enterobacter cloacae A9656; type: cell-based; details: overnight 37° C., read-out: Minimum Inhibitory Concentration (M.I.C.)
# Excerpt: as §1
# Ser. marcescens A-20019 = experiment: MIC, tube dilution, Serratia marcescens A20019; type: cell-based; details: Serratia marcescens, A20019, Serratia marcescens A20019; overnight 37° C.; read-out: Minimum Inhibitory Concentration (M.I.C.)
# Excerpt: as §1
# Proteus rettgeri A21203 = experiment: MIC, tube dilution, Proteus rettgeri A21203; type: cell-based; details: Providencia rettgeri, A21203, Proteus rettgeri A21203; overnight 37° C.; read-out: Minimum Inhibitory Concentration (M.I.C.)
# Excerpt: as §1
# Ent. cloacae A-9659 = experiment: MIC, tube dilution, Enterobacter cloacae A9659; type: cell-based; details: Enterobacter cloacae, A9659, Enterobacter cloacae A9659; overnight 37° C.; read-out: Minimum Inhibitory Concentration (M.I.C.)
# Excerpt: as §1
# Pr. morganii A-15153 = experiment: MIC, tube dilution, Proteus morganii A15153; type: cell-based; details: Morganella morganii, A15153, Proteus morganii A15153; overnight 37° C.; read-out: Minimum Inhibitory Concentration (M.I.C.)
# Excerpt: as §1
# E. coli A-15119 = experiment: MIC, tube dilution, Escherichia coli A15119; type: cell-based; details: Escherichia coli, A15119, E. coli A15119; overnight 37° C.; read-out: Minimum Inhibitory Concentration (M.I.C.)
# Excerpt: as §1
# Pr. vulgaris A-9716 = experiment: MIC, tube dilution, Proteus vulgaris / Proteus mirabilis A9716; type: cell-based, Proteus vulgaris (name changed to Proteus mirabilis); details: Proteus vulgaris, A9716, Proteus vulgaris / Proteus mirabilis A9716; overnight 37° C.; read-out: Minimum Inhibitory Concentration (M.I.C.)
# Excerpt: as §1
# Pr. mirabilis A-9900 = experiment: MIC, tube dilution, Proteus mirabilis A9900; type: cell-based; details: Proteus mirabilis, A9900, Proteus mirabilis A9900; overnight 37° C.; read-out: Minimum Inhibitory Concentration (M.I.C.)
# Excerpt: as §1
# S. aureus A9537 = experiment: In vivo protection of mice, lethal infection with S. aureus A9537; details: Staphylococcus aureus, A9537, im, IM, 2 treatments, 1.1 × 10^6 organisms; read-out: PD50
# Experimental: Representative compounds of the present invention were also tested in vivo in mice and their PD50 (dose of compound in mg/kg required to protect 50% of the treated mice against an otherwise lethal infection of a micro-organism) values determined with respect to the test organisms shown below.
# [4] = Mouse blood levels after intramuscular administration; type: in vivo; details: average of 6 mice, read-out: Mouse blood level
# Experimental: Mouse blood levels after intramuscular administration of representative compounds of the present invention were determined and are reported in the table below.
# [5] = test system: Staph. aureus (Pen-Res) A-9606; experiment: MIC, tube dilution, Staphylococcus aureus A9606 (Pen-Res); type: cell-based; details: Staphylococcus aureus, Staph. aureus A9606 (Pen-Res); overnight 37° C.; read-out: Minimum Inhibitory Concentration (M.I.C.)
# Excerpt: as §1
# Ps. aeruginosa A-21213 = experiment: MIC, tube dilution, Pseudomonas aeruginosa A21213; type: cell-based; details: Pseudomonas aeruginosa A21213; overnight 37° C.; read-out: Minimum Inhibitory Concentration (M.I.C.)
# Excerpt: as §1
# Ps. aeruginosa A-9843A = experiment: MIC, tube dilution, Pseudomonas aeruginosa A9843A; type: cell-based; details: Pseudomonas aeruginosa, A9843A, read-out: Minimum Inhibitory Concentration (M.I.C.), Pseudomonas aeruginosa A9843A; overnight 37° C.
# Excerpt: as §1
# K. pneumoniae A-15130 = experiment: MIC, tube dilution, Klebsiella pneumoniae A15130; type: cell-based; details: Klebsiella pneumoniae, A15130, K. pneumoniae A15130; overnight 37° C.; read-out: Minimum Inhibitory Concentration (M.I.C.)
# Excerpt: as §1
# Str. faecalis A-20688 = experiment: MIC, tube dilution, Streptococcus faecalis A20688; type: cell-based; details: Str. faecalis A20688; overnight 37° C.
# Excerpt: as §1
# [6] = test system: Staph. aureus (Meth-Res) A-15097; experiment: MIC, tube dilution, Staphylococcus aureus A15097 (Meth-Res); type: cell-based; details: Staph. aureus A15097 (Meth-Res); overnight 37° C.
# Excerpt: as §1
smiles,measurement,setting,value
"CC1=C(C(=O)O)N2C(=O)C[C@H]2S1 [Preparation 4(-), (-)-2-Methylpenem-3-carboxylic Acid]",Minimum Inhibitory Concentration (M.I.C.),[1],> 63 µg/mL
same,MIC,E. coli A-20341-1,> 125 µg/mL
same,Minimum Inhibitory Concentration (M.I.C.),Str. pneumoniae A-9585; Str. pneumoniae A9585,8 µg/mL
same,Minimum Inhibitory Concentration (M.I.C.),Staph. aureus A-9537; Staph. aureus A9537,32 µg/mL
same,Minimum Inhibitory Concentration (M.I.C.),[2],> 125 µg/mL
same,MIC,[3],> 125 µg/mL
same,Minimum Inhibitory Concentration (M.I.C.),Str. pyogenes A-9604; Str. pyogenes A9604,8 µg/mL
same,MIC,Ent. cloacae A-9656; Enterobacter cloacae A9656,> 125 µg/mL
"NCCCC1=C(C(=O)O)N2C(=O)CC2S1 (stereo not drawn) [Example 22, Sodium 2-Aminopropylpenem-3-carboxylate]",MIC,Ser. marcescens A-20019,32 µg/mL
same,MIC,"[1]; Staphylococcus aureus, read-out: Minimum Inhibitory Concentration (M.I.C.)",63 µg/mL
same,MIC,Proteus rettgeri A21203,16 µg/mL
same,MIC,Ent. cloacae A-9659,16 µg/mL
same,MIC,Pr. morganii A-15153,32 µg/mL
same,MIC,E. coli A-15119,16 µg/mL
same,MIC,Pr. vulgaris A-9716,16 µg/mL
same,MIC,Pr. mirabilis A-9900,16 µg/mL
same,MIC,E. coli A-20341-1,125 µg/mL
same,ED50,S. aureus A9537,0.63 mg/kg
same,concentration at 10 min,[4]; 10 minutes after IM 40 mg/kg,36500 ng/mL
same,concentration at 20 min,[4]; 20 minutes after IM 40 mg/kg,39900 ng/mL
same,concentration at 0.5 h,[4]; 30 minutes after IM 40 mg/kg,31500 ng/mL
same,concentration at 0.75 h,[4]; 45 minutes after IM 40 mg/kg,16500 ng/mL
same,concentration at 1 h,[4]; 60 minutes after IM 40 mg/kg,11500 ng/mL
same,concentration at 1.5 h,[4]; 90 minutes after IM 40 mg/kg,5700 ng/mL
same,concentration at 2 h,[4]; 120 minutes after IM 40 mg/kg,3100 ng/mL
same,MIC,"Str. pneumoniae A-9585; Streptococcus pneumoniae, A9585, Str. pneumoniae A9585, read-out: Minimum Inhibitory Concentration (M.I.C.)",0.25 µg/mL
same,MIC,"Staph. aureus A-9537; Staphylococcus aureus, A9537, Staph. aureus A9537, read-out: Minimum Inhibitory Concentration (M.I.C.)",2 µg/mL
same,MIC,[5],63 µg/mL
same,MIC,Ps. aeruginosa A-21213,125 µg/mL
same,MIC,Ps. aeruginosa A-9843A,125 µg/mL
same,MIC,[2]; read-out: Minimum Inhibitory Concentration (M.I.C.),> 125 µg/mL
same,MIC,K. pneumoniae A-15130,32 µg/mL
same,Minimum Inhibitory Concentration (M.I.C.),Str. faecalis A-20688,125 µg/mL
same,MIC,"Str. pyogenes A-9604; Streptococcus pyogenes, A9604, Str. pyogenes A9604, read-out: Minimum Inhibitory Concentration (M.I.C.)",2 µg/mL
same,Minimum Inhibitory Concentration (M.I.C.),[6],125 µg/mL
same,MIC,"Ent. cloacae A-9656; Enterobacter cloacae, A9656, Enterobacter cloacae A9656",32 µg/mL
